{"source": "patent US20250186503A1", "about": "“METHODS AND COMBINATIONS FOR TREATMENT AND T CELL MODULATION” (Juno Therapeutics, Inc., priority 2018, published 2025)", "key": {"[1]": {"tested_on": "Granta-519 or Raji target cells", "test": "Cytokine production and cytolytic activity of anti-CD19 CAR+ T cells with Granta-519 or Raji target cells", "type": "cell-based, human", "method": "Similar studies as above were conducted using Granta-519 or Raji target cells to assess cytokine production and cytolytic activity of anti-CD19 CAR-expressing T cells upon co-culture with the target cells. As shown in FIG. 33B Raji cells were selected due to high expression of cell surface molecule CD19 when compared to Granta-519, as quantified by flow cytometry. Enumeration of CD19 was inferred by a standard curve generated using molecules of equivalent soluble fluorophore beads.\nAfter 24 hours of culture cytokine production was monitored in the supernatant. […] Cytolytic activity also was measured for pooled donors over time of the co-culture."}, "[2]": {"tested_on": "Raji and Granta-519 tumor cells", "test": "CAR T function against Raji and Granta-519 tumor cells after concurrent treatment during chronic stimulation", "type": "cell-based, human", "parameters": "dose or concentration left out as unconfirmed"}, "[3]": {"tested_on": "A549 CD19+ tumor spheroids", "test": "Rescue of chronically stimulated anti-CD19 CAR T cells rechallenged with A549 CD19+ tumor spheroids", "type": "cell-based, human", "method": "Anti-CD19 CAR-expressing T cell compositions (containing CD4+ and CD8+ T cells combined at a 1:1 ratio) were generated from three different healthy donors substantially as described in Example 14. To subject cells to chronic stimulation conditions, the CAR+ T cells were incubated with plate-bound anti-idiotypic (anti-ID) antibody (see e.g. WO2018/023100), and incubated at 37° C. for a period of 6 days. […] The A549 CD19+tumor spheroids were labeled with a dye to permit monitoring of tumor cell lysis by microscopy during the assay. Freshly thawed anti-CD19 CAR-expressing T cells that had not been subjected to the chronic stimulatory conditions were incubated with the spheroids in parallel as controls. Cells were assessed at various times for cytolytic function, CAR T cell number and cytokine production."}, "Nr4a1 (Nur77) reporter": {"tested_on": "Nr4a1 (Nur77) reporter", "test": "CAR signaling in Jurkat Nur77 reporter cell line", "type": "cell-based", "details": "anti-CD19 CAR or anti-ROR1 CAR; up to 6 hours", "from_the_text": "Cells of a reporter cell line were transduced using lentiviral vectors encoding the anti-CD19 CAR described in Example 14 or an anti-ROR1 CAR were introduced into cells of a Jurkat reporter cell line to assess CAR signaling in the presence of CAR stimulation. The anti-ROR1 CAR contained an anti-ROR1 scFv derived from a murine antibody, an immunoglobulin-derived spacer, a transmembrane domain derived from CD28, a costimulatory region derived from 4-1BB, and a CD3-zeta intracellular signaling domain. The Jurkat reporter cell lines contained a red fluorescent protein inserted by knock-ininto the endogenous Nr4a1 (Nur77) gene."}, "Ikaros": {"target": "T1, Ikaros (Homo sapiens, UniProt Q13422+Q96SW2)", "T1 construct": "intracellular levels of Ikaros in CD4+ CAR+ or CD8+ CAR+ cells; endogenous in cells; host or cells: primary human CD4+ and CD8+ T cells transduced with an anti-CD19 CAR (FMC63 scFv)", "T1 sequence (Q13422 whole entry)": "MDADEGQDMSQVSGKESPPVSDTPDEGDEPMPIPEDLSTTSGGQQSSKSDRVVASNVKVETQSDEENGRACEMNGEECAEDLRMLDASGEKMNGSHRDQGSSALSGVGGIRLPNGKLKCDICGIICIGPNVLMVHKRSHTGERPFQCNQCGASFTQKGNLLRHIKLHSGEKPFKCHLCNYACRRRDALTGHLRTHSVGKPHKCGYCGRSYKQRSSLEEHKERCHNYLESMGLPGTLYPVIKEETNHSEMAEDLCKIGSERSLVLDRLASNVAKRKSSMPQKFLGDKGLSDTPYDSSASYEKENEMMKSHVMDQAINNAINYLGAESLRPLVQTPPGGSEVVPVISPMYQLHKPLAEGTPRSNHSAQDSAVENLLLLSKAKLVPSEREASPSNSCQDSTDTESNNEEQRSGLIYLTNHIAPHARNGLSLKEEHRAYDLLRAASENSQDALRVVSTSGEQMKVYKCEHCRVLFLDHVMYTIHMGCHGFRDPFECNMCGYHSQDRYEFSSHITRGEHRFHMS", "T1 sequence (Q96SW2 whole entry)": "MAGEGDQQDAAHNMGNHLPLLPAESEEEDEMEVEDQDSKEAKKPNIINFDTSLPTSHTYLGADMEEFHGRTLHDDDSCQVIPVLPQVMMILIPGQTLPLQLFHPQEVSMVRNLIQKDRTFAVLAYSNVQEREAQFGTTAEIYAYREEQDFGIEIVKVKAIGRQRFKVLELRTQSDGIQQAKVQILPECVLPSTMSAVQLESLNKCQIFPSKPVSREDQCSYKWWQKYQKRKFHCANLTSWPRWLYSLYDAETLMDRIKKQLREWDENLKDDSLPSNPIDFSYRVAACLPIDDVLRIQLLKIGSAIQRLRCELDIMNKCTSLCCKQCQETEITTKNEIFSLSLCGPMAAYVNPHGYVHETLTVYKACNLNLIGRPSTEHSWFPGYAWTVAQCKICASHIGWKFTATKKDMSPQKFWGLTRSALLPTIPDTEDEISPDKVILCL", "T1 sequence (Q16531 whole entry partner)": "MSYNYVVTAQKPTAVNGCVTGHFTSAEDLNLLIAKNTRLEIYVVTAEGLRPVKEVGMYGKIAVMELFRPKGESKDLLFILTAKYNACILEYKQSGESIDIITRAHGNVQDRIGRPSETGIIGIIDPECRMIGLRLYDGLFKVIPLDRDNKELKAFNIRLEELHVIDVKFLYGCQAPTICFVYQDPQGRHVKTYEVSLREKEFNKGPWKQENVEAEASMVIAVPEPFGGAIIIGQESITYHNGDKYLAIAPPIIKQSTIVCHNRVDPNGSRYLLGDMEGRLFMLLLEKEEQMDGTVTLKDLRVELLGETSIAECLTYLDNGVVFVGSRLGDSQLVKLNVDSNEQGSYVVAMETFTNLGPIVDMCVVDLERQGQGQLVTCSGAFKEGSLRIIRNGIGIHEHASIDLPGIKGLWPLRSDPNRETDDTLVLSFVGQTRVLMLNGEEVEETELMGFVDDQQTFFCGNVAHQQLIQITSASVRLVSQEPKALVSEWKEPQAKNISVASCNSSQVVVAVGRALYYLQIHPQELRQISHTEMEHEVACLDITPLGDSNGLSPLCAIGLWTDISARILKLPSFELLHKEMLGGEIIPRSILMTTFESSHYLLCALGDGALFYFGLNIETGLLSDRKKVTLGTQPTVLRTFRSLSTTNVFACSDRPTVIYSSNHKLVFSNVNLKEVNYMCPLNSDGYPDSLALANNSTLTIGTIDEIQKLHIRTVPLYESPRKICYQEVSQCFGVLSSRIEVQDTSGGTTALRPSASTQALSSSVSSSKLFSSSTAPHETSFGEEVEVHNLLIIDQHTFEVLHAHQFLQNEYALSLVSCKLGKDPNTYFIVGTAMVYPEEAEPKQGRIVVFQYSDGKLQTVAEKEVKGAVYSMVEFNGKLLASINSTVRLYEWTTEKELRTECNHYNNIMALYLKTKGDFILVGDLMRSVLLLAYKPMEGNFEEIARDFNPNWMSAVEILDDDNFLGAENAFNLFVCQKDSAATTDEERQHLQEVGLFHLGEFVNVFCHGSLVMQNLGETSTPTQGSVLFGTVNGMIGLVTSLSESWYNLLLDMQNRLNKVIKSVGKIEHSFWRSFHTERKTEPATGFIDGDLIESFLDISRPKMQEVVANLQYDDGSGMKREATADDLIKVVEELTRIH", "test": "Intracellular Ikaros expression in CAR-expressing T cells", "type": "cell-based", "from_the_text": "FIGS. 31A-31C show flow cytometry analysis of intracellular Ikaros or Aiolos expression on both CD4+ anti-CD19 CAR-expressing T cells and CD8+ anti-CD19 CAR-expressing T cells. […] Median fluorescence intensity (MFI) values for Ikaros and Aiolos were normalized and calculated as a percentage relative to […] vehicle control."}, "[4]": {"tested_on": "Granta-519 tumor spheroids", "test": "Granta-519 tumor spheroids, concurrent versus rescue treatment of long-term stimulated CAR T cells", "type": "cell-based, human", "parameters": "cytokine levels at day 5: dose or concentration left out as unconfirmed", "method": "The long-term stimulated anti-CD19 CAR-expressing T cells were co-cultured by incubation with Granta-519 tumor spheroids and cells were assessed at various time points for cytolytic function and cytokine function. During concurrent treatments Compound 1 was present during the long-term stimulation but was not present during the co-culture with target cells. During the rescue treatment Compound 1 was not present during the long-term stimulation but was present during the co-culture with target cells."}, "OPM-2": {"tested_on": "OPM-2", "test": "Cytolytic activity of anti-BCMA CAR T cells against OPM-2 target cells", "type": "cell-based, human", "method": "[…]. The OPM-2 cells were labeled with NucLight Red (NLR) to permit tracking of target cells by microscopy substantially as described above. […] […].\n[…]. Cytolytic activity was measured by loss of red fluorescent cells. […]."}, "RPMI-8226": {"tested_on": "RPMI-8226", "test": "7-day prestimulation of anti-BCMA CAR-T cells on BCMA beads, phenotype and re-challenge with RPMI-8226", "type": "cell-based, human", "method": "Expression of CD25, PD-1, Tim3 and Lag3 on CAR T cells (using an antibody for surrogate CAR marker) cultured under the different conditions then was assessed by flow cytometry.\nPercentage killing was normalized to anti-BCMA CAR T cells prestimulated on beads in the presence of vehicle. Cytokine production was assessed by ELISA from supernatant following culture with target cells for 24 hours. Experiments were performed twice in 3 donors. […] P values were obtained by likelihood ratio tests comparing the full model with the effect of interest against the model without the effect of interest."}, "anti-BCMA CAR T cells": {"tested_on": "anti-BCMA CAR T cells", "test": "Cytokine production of anti-BCMA CAR T cells at low, medium and high BCMA bead stimulation", "type": "cell-based, human", "method": "In another study, recombinant human BCMA-conjugated beads were used to stimulate CAR T cells at various concentratons to titrate the magnitude of stimulation, either low (5 μg/mL), medium (50 μg/mL), and high (200 μg/mL) stimulation."}}, "data": [{"smiles": "Cc1nc2cccc(N)c2c(=O)n1C1CCC(=O)NC1=O", "note": "(stereo not drawn) [Compound 1, 3-(5-amino-2-methyl-4-oxo-4H-quinazolin-3-yl)-piperidine-2,6-dione]", "values": [{"measurement": "IL-2 production", "setting": "[1]; 100 or 1000 nM, 2.5:1 E:T, 24 hours", "value": "increase compared to control"}, {"measurement": "IFN-γ production", "setting": "[1]; 100 or 1000 nM, 2.5:1 E:T, 24 hours, CD8+ CAR-expressing T cells", "value": "concentration dependent increase"}, {"measurement": "cytolytic activity over time", "setting": "[1]; pooled donors, CD8+ CAR-expressing T cells", "value": "limited effect"}, {"measurement": "cytolytic activity (tumor cell number over time)", "setting": "[2]; 0. and Compound 1 concurrent, 2.5:1 E:T", "value": "improved"}, {"measurement": "IFN-γ and TNF-α production", "setting": "[2]; 24 hours, both cell lines", "value": "increased relative to vehicle control"}, {"measurement": "EC50", "setting": "[3]; Homo sapiens, chronically stimulated CAR-T cells, A549 CD19+ spheroids, read-out: EC50 for effect on tumor volume reduction", "value": 127, "unit": "nM"}, {"measurement": "numbers of CAR-T cells", "setting": "[3]; day 5, 1 μM, fresh and chronically stimulated CAR-T cells", "value": "increase expansion and/or survival of CAR-T cells"}, {"measurement": "cytokine production (IFN-γ, IL-2, TNF-α)", "setting": "[3]; day 5, long-term stimulated CAR-expressing T cells", "value": "increased relative to co-cultures containing vehicle control"}, {"measurement": "antigen-specific cytokine production and tumor reduction by chronically stimulated CAR-T cells", "setting": "[3]; rescue treatment", "value": "restore antigen-specific cytokine production and tumor reduction"}, {"measurement": "Nur77 reporter signal following CAR-specific stimulation", "setting": "Nr4a1 (Nur77) reporter", "value": "increased"}, {"measurement": "Ikaros expression in CAR-expressing T cells", "setting": "Ikaros", "value": "decreased in a concentration dependent manner"}, {"measurement": "magnitude of Ikaros loss compared with lenalidomide", "setting": "Ikaros", "value": "greater"}, {"measurement": "cytokine levels at day 5", "setting": "[4]; concurrent treatment", "value": "enhanced IFN-γ"}, {"measurement": "tumor spheroid size at day 9", "setting": "[4]; concurrent treatment with long-term stimulation", "value": "concentration dependent decrease in tumor volume"}, {"measurement": "cytokine levels at day 5", "setting": "[4]; delayed treatment with Compound 1", "value": "enhanced production of both IFN-γ and TNF-α"}, {"measurement": "tumor spheroid size at day 9", "setting": "[4]; subsequent treatment after long-term stimulation", "value": "concentration dependent decrease in tumor volume"}]}, {"smiles": "Nc1cccc2c1CN(C1CCC(=O)NC1=O)C2=O", "note": "(stereo not drawn) [lenalidomide, 3-(4-amino-1-oxo-1,3-dihydro-2H-isoindol-2-yl)piperidine-2,6-dione]", "values": [{"measurement": "cytolytic activity of anti-BCMA CAR+ T cells against OPM-2", "setting": "OPM-2; 0.01-10 μM, E:T 1:1, 7 days, four donors, dose-dependent", "value": "enhance"}, {"measurement": "antigen-specific anti-BCMA CAR-T cytolytic activity and cytokine production", "setting": "OPM-2; healthy donor and pomalidomide-refractory multiple myeloma patient CAR T, 0.01-10 μM", "value": "increased"}, {"measurement": "anti-BCMA CAR T cytolytic activity against OPM-2", "setting": "OPM-2; three healthy donors and one IMiD-refractory patient, all donors", "value": "Increased"}, {"measurement": "percentage of PD-1+ cells in the CD4+ population", "setting": "RPMI-8226; 1 μM", "value": "decrease"}, {"measurement": "cytolytic function of prestimulated CAR-T cells", "setting": "RPMI-8226; 1 μM during the prestimulation period", "value": "preserved"}, {"measurement": "cytokine production of prestimulated CAR-T cells", "setting": "RPMI-8226; 1 μM during the prestimulation period, vs vehicle", "value": "trend toward increased cytokine production"}, {"measurement": "total cell count", "setting": "RPMI-8226; 1 μM, 7 days on BCMA beads", "value": "did not alter"}, {"measurement": "CAR+ viability", "setting": "RPMI-8226; 1 μM, 7 days on BCMA beads, 3 healthy donors", "value": "significantly increased"}, {"measurement": "percentage positive for Lag3 expression", "setting": "RPMI-8226; 1 μM, CD4+ and CD8+ CAR+ populations", "value": "increased"}, {"measurement": "CD25 in CD4+ and CD8+ CAR+ populations", "setting": "RPMI-8226; 1 μM, all donors", "value": "increased"}, {"measurement": "PD-1 expression of BCMA-CAR-T cells", "setting": "RPMI-8226; 1 μM, prolonged stimulation", "value": "reduced"}, {"measurement": "surface expression of Tim3 in the CD8+ population", "setting": "RPMI-8226; 1 μM, three donors", "value": "increased"}, {"measurement": "percentage of IFN-γ+ and TNF-α+ intracellular staining", "setting": "anti-BCMA CAR T cells; 0.1 or 1.0 μM, all stimulation levels, CD4+ and CD8+ CAR T cells", "value": "increased"}, {"measurement": "percentage of IL-2+ CAR+ T cells", "setting": "anti-BCMA CAR T cells; 5-μg stimulation", "value": "increasing"}, {"measurement": "percentage of IL-2+ CAR+ T cells", "setting": "anti-BCMA CAR T cells; 50-μg and 200-μg stimulation", "value": "decreasing"}, {"measurement": "CAR T cytokine production", "setting": "anti-BCMA CAR T cells; absence of stimulation", "value": "no effect"}, {"measurement": "IFN-γ secreted", "setting": "anti-BCMA CAR T cells; medium stimulation (50 μg/mL BCMA beads), 24 hours", "value": "donor-dependent increases"}]}]}
